Paper PMC4726752, “Coenzyme Q Biosynthesis: Evidence for a Substrate Access Channel in the FAD-Dependent Monooxygenase Coq6” (PLoS Computational Biology, 2016)
Each block holds one molecule with its values, some of them ahead of it.

Key:
[1] = target: T1, Coq6p-MBP (Coq6p) (Saccharomyces cerevisiae, UniProt P53318); settings: co-purified cofactor; tetrameric Coq6p-MBP, purified in Tris-HCl pH 7.5
T1 construct: gene COQ6

[2] = target: the molecule itself; assay: SEC; gel filtration on Superdex 200 10/300 GL calibrated with standards of known molecular mass (Bio-Rad); purified Coq6p-MBP

T1 sequence (P53318 whole entry): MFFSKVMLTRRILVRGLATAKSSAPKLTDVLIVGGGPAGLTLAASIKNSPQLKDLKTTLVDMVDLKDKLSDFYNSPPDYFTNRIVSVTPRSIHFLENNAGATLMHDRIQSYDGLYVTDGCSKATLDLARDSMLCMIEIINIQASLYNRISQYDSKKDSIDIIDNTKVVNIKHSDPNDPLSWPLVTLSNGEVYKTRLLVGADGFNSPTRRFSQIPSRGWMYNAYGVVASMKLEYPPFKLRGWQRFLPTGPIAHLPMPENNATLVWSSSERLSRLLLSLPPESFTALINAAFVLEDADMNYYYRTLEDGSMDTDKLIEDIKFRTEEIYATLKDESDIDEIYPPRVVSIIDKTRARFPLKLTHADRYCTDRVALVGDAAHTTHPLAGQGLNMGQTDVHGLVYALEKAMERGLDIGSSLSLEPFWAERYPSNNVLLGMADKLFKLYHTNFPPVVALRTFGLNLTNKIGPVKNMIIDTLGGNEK

- FAD occupancy per monomer [1]: ~ 85%
Molecule: Cc1cc2nc3c(=O)[nH]c(=O)nc-3n(C[C@H](O)[C@H](O)[C@H](O)COP(=O)(O)OP(=O)(O)OC[C@H]3O[C@@H](n4cnc5c(N)ncnc54)[C@H](O)[C@@H]3O)c2cc1C [FAD]

B1: Coq6p-MBP fusion protein (enzyme, S. cerevisiae, UniProt P53318 18-479, looked up)
chain: ATAKSSAPKLTDVLIVGGGPAGLTLAASIKNSPQLKDLKTTLVDMVDLKDKLSDFYNSPPDYFTNRIVSVTPRSIHFLENNAGATLMHDRIQSYDGLYVTDGCSKATLDLARDSMLCMIEIINIQASLYNRISQYDSKKDSIDIIDNTKVVNIKHSDPNDPLSWPLVTLSNGEVYKTRLLVGADGFNSPTRRFSQIPSRGWMYNAYGVVASMKLEYPPFKLRGWQRFLPTGPIAHLPMPENNATLVWSSSERLSRLLLSLPPESFTALINAAFVLEDADMNYYYRTLEDGSMDTDKLIEDIKFRTEEIYATLKDESDIDEIYPPRVVSIIDKTRARFPLKLTHADRYCTDRVALVGDAAHTTHPLAGQGLNMGQTDVHGLVYALEKAMERGLDIGSSLSLEPFWAERYPSNNVLLGMADKLFKLYHTNFPPVVALRTFGLNLTNKIGPVKNMIIDTLGGNEK
notes: Coq6p, FAD-dependent monooxygenase of ubiquinone biosynthesis, S. cerevisiae, UniProt P53318; coq6 gene optimised for E. coli and cloned in pMAL-c2X between BamHI and EcoRI downstream of malE; Printed mass of the fusion is 96.3 kDa with an MBP tag of 45 kDa, which would fit the whole 479-residue Coq6p (my surmise); source: E. coli BL21 (DE3) co-transformed with pMALc2x-Coq6p and pGro7 …
- stoichiometry N [2]: 4
